According to patent publication US6407058B1, “Modifying the permeability of physiological barriers” (Eisai Co., Limited, priority 1996, dated 2002):

Legend:
Type in all cases: cell-based
paxillin = paxillin electrophoretic mobility by immunoblotting, MDCK I cells; settings: 200 nM PDB, 30 minutes
Method: (§1) The migration of the cellular proteins p100 and p120 during electrophoresis is increased following PDB-treatment of MDCK I cells. PDB (phorbol-12,13-dibutyrate) is a pharmacological activator of protein kinase C. MDCK I cells are a kidney derived epithelial cell line, with particularly well developed junctional complexes. Cells treated for 30 minutes with either 200 nM PDB (+) or vehicle (−) were then lysed into Laemmli sample buffer, and separated by electrophoresis using 6% acrylamide gels. Proteins were transferred to nitrocellulose and probed with antibodies to p100/p120, and then reprobed with E-cadherin and paxillin antibodies.
Cell extracts or immunoprecipitates in SDS sample buffer were resolved by SDS-PAGE. The slab gels were then equilibrated in buffer comprising; 48 mM Tris, 39 mM glycine, 20% methanol and 0.03% SDS. Proteins were transferred to nitrocellulose filters (Hybond ECL; Amersham), which were Ponceau S stained and then blocked for 2 hours at 37° C. with 1% BSA in PBS containing 0.05% Tween-20. Filters were then probed with p120 antibody, at a dilution of 1:2500. […] The filters were then extensively washed in PBS/0.5% Tween-20, and immunoreactive bands were detected by enhanced chemiluminescence (Amersham) following the manufacturers instructions.

p100/p120 [1] = experiment: p100/p120 electrophoretic mobility (band shift) by immunoblotting, MDCK I cells; settings: 30 minutes
Method: as §1
MDCK strain I and II cells were provided by Barry Gumbiner (memorial Sloan-Kettering Cancer Center, NY). LLC-PK1 and Caco-2 cells were obtained from the European Collection of Animal Cell Cultures. All cells were maintained at 37° C. under 5% CO2 in humidified air. MDCK strain I and II cells were maintained in MEM containing 10% FCS, 100 U/ml penicillin, 100 μg/ml streptomycin and 2 mM L-glutamine. Caco-2 cells were maintained in MEM containing 15% FCS, 1% non-essential amino acids and 1 μg/ml bovine insulin (Sigma I-6634). LLC-PK1 cells were grown in M199 (Gibco), 10% FCS, 100 U/ml penicillin, 100 μg/ml streptomycin and 2 mM L-glutamine. For whole cell lysate analysis, 10^5 cells were plated on 6.5 mm diameter, 0.4 μm, polycarbonate Transwell filters from Costar, in 0.25 ml of medium. The basolateral chamber contained 0.75 ml of medium. For immunoprecipitation, 5×10^5 cells were plated onto 24 mm Transwell filters, in 2 ml of medium, with 3 ml of medium in the lower chamber. Cells were used 4-7 days after plating. Tissue culture materials were from Gibco. Porcine brain endothelial cells were isolated and grown by modifications of a previously published procedure (Rubin et al., 1991). Brain capillary fragments were plated on dishes coated with rat tail collagen and human fibronectin. The cultures were fed every other day with growth medium composed of 50% astrocyte-conditioned medium and 50% Dulbecco's Modified Eagle Medium containing 10% plasma-derived serum, 125 μg/ml heparin, antibiotics and glutamine. They were incubated in a humidified atmosphere of 10% CO2 at 37° C. When the endothelial cells were approximately 50% confluent (after 4-6 days in culture), they were trypsinized and plated onto collagen-coated polycarbonate Transwell filters (6.5 mm diameter, 0.4 μm pore size, tissue culture treated, Costar Corp, Cambridge, Mass., U.S.A.) in the same medium (250 μl apically, 750 μl basolaterally). After 2-3 days on filters, the medium was switched to a 1:1 mixture of astrocyte-conditioned medium and a Dulbecco's Modified Eagle Medium-based, chemically defined medium (‘N2’, Rubin et al., 1991; Bottenstein and Sato, 1979). The final concentration of plasma-derived serum was 5%. Human umbilical vein endothelial cells were from Clonetics.
Whole cell lysates were prepared by rapidly replacing the culture medium in 6.5 mm with hot Laemmli sample buffer, followed by heating at 100° C. for 5 minutes. Immunoprecipitations were carried out at 4° C. Confluent monolayers of cells were washed rapidly with ice cold PBS (containing 0.9 mM CaCl2 and 0.5 mM MgCl2) before addition of 0.5 ml of the appropriate buffer. The filters were then gently scraped, and the lysate was removed and centrifuged at 14000× g. The supernatant was precleared with 10% (w/v) protein A-Sepharose in lysis buffer for 30-60 minutes. Appropriate primary antibodies were added to the lysate, and after 2-3 hours the immunecomplex was isolated, using rabbit anti-mouse secondary antibodies (Jackson Immunoresearch Labs Inc., West Grove, Pa.) and protein A-Sepharose. The beads were washed fives times with lysis buffer, and the bound protein was solubilized in SDS-sample buffer, followed by heating at 100° C. for 5 minutes.
Cell extracts or immunoprecipitates in SDS sample buffer were resolved by SDS-PAGE. […]

p100/p120 [2] = experiment: immunofluorescence localisation of p100/p120, MDCK I cells; settings: PDB-treated vs control
From the text: It has been shown that although some of the p100/p120 in cells is associated with adherens junctions, there is also a large pool that is not complexed with cadherins (at least by immunoprecipitation analysis). […] This procedure served to isolate only that portion of the cellular p100/p120 that associates with the cadherins. Following electrophoresis, and transfer to nitrocellulose, the p100 and p120 present in E-cadherin immunoprecipitates were detected by immunoblotting (Example 9A). […] In both cases, p100/p120 is shown to be present at regions of cell—cell contact.
Cells were fixed at room temperature for 20 minutes in 3% paraformaldehyde made up in PBS containing 0.5 mM CaCl2 and 0.5 mM MgSO4. Fixed cells were washed and then permeabilized by incubation with 0.5% Triton X-100 in PBS for 10 minutes. After washing, the cells were incubated for 30 minutes in PBS containing 10% calf serum and 0.1 M lysine, pH 7.4. Incubation with p120 antibody (0.5 μg/ml) was in PBS containing 10% calf serum for 1 hour. After washing, the cells were then incubated for 60 minutes with a 1:100 dilution of FITC-conjugated anti-mouse IgG (Jackson Immunoresearch Labs), in PBS containing 10% calf serum. After washing, the filters were mounted with Citifluor (Citifluor Products, Canterbury, UK) and examined using a Nikon Microphot-FXA fluorescence microscope fitted with 40× and 60× objectives. […]

p100/p120 [3] = experiment: p100/p120 electrophoretic mobility, bovine aortic endothelial cells (BAECs); settings: 200 nM PDB, 30 minutes
Method: The mobility of p100 and p120 during electrophoresis is also altered by PDB-treatment in endothelial cells. The p100/p120 proteins from human umbilical vein endothelial cells (HUVECs), bovine aortic endothelial cells (BAECs) and primary pig brain endothelial cells (PBECs) were all affected by PDB-treatment. Cells were treated with or without 200 nM PDB for 30 minutes, lysed into Laemmli sample buffer, separated by electrophoresis and analysed by immunoblotting with antibodies recognising p100 and p120. […] Thus the effect of PKC activation (via PDB) on p100/p120 mobility is a widespread phenomenon.
Whole cell lysates were prepared by rapidly replacing the culture medium in 6.5 mm with hot Laemmli sample buffer, followed by heating at 100° C. for 5 minutes. Immunoprecipitations were carried out at 4° C. Confluent monolayers of cells were washed rapidly with ice cold PBS (containing 0.9 mM CaCl2 and 0.5 mM MgCl2) before addition of 0.5 ml of the appropriate buffer. The filters were then gently scraped, and the lysate was removed and centrifuged at 14000× g. […]
Cell extracts or immunoprecipitates in SDS sample buffer were resolved by SDS-PAGE. […] The filters were then extensively washed in PBS/0.5% Tween-20, and immunoreactive bands were detected by enhanced chemiluminescence (Amersham) following the manufacturers instructions.

CCCC(=O)O[C@@H]1[C@@H](C)[C@@]2(O)[C@@H](C=C(CO)C[C@]3(O)C(=O)C(C)=C[C@@H]23)[C@@H]2C(C)(C)[C@]12OC(=O)CCC [PDB, Phorbol-12,13-dibutyrate]
effect on paxillin migration (phosphorylation) (paxillin): upward band shift
migration of p100 and p120 during electrophoresis (p100/p120 [1]; MDCK I cells, 200 nM PDB): migrate as faster, tighter bands
concentration of maximal effect on p100/p120 mobility (p100/p120 [1]; MDCK I, PDB 1 to 200 nM): 100 nM
localisation of p100 and p120 (p100/p120 [2]): no change in the localisation
mobility of p100 and p120 (p100/p120 [3]): the mobility of p100 and p120 increased
